The source of these data is patent US9776991B2, “Thienomethylpiperazine derivatives as inhibitors of soluble epoxide hydrolase” (SANOFI, priority 2013, dated 2017).

For this test, the target named is recombinant sEH (soluble epoxide hydrolase, EPHX2) (Homo sapiens (Human), UniProt P34913). The test can be described thus: biochemical fluorometric sEH inhibition assay with Phome substrate. As to conditions: recombinant sEH purified from Sf9 insect cells, 2 nM sEH, 5 μM Phome, 60 minutes at 30° C. An outline of the steps: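 Human sEH expressed in Sf9 cells (2 nM final) pre-incubated 15 min at 30 °C with compound (0.0001-10 μM), then 5 μM Phome added for 60 min at 30 °C in 25 mM Hepes with 0.01% albumin. Fluorescent 6-methoxy-2-naphthaldehyde read before substrate addition and at the end; IC50 from % inhibition.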
Chain of recombinant sEH (soluble epoxide hydrolase, EPHX2) (P34913 whole entry): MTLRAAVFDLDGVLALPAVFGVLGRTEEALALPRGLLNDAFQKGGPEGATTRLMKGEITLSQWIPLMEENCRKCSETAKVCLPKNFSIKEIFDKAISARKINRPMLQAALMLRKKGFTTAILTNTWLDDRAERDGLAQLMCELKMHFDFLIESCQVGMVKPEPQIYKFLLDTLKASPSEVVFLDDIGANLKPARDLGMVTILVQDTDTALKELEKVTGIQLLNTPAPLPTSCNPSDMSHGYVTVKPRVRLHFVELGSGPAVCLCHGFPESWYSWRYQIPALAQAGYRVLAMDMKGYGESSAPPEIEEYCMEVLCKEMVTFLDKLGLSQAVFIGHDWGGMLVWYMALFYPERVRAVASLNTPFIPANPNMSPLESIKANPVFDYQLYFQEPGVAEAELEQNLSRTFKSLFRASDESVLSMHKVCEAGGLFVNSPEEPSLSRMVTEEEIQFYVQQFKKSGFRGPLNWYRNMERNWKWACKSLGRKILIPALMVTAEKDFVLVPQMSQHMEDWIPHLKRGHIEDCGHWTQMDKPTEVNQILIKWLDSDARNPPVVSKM
Broadly, the IC50 is the concentration needed to halve the response being measured. Take `Cc1cc(N2CCN(Cc3ccc(C(=O)NCc4ccc(Cl)cc4Cl)s3)CC2)cc(C)n1` [Example 120, 5-[4-(2,6-Dimethyl-pyridin-4-yl)-piperazin-1-ylmethyl]-thiophene-2-carboxylic acid 2,4-dichloro-benzylamide]: the IC50 was determined as 5.3 nM. The same measure for `COc1cc(CNC(=O)c2ccc(CN3CCN(C(=O)C4CC(=O)OC4(C)C)CC3)s2)ccn1` (centres unmarked) [Example 40]: 2.75 nM. In the case of `O=C(NCc1ccc(Cl)cc1Cl)c1ccc(CN2CCN(C(=O)c3ccccn3)CC2)s1` [Example 77] it was 2.49 nM; in that of `CC(O)C(=O)N1CCN(Cc2ccc(C(=O)NCc3ccc(C#N)cc3Cl)s2)CC1` (centres unmarked) [Example 61], 1.18 nM; in that of `COCc1cc(O)nc(N2CCN(Cc3ccc(C(=O)NCc4ccc(Cl)cc4Cl)s3)CC2)n1` [Example 21], 2.9 nM. `O=C(NCc1ccc(Cl)cc1Cl)c1cnc(CN2CCN(C(=O)C3CCC(O)C3)CC2)s1` (centres unmarked) [Example 209]: the IC50 is 3.49 nM.

Turning to `O=C(NCc1ccc(Cl)cc1Cl)c1ccc(CN2CCN(C(=O)Cc3cccc(C(F)(F)F)c3)CC2)s1` [Example 100], the IC50 was 2.3 nM. Regarding `Cn1cccc1C(=O)N1CCN(Cc2ccc(C(=O)NCc3ccc(Cl)cc3Cl)s2)CC1` [Example 130], the IC50 was determined as 1.73 nM. The same measure for `COc1ccc(OC)c(C(=O)N2CCN(Cc3ccc(C(=O)NCc4ccccc4OC(F)(F)F)s3)CC2)n1` [Example 67]: 1.21 nM; for `O=C(NCc1ccccc1C(F)(F)F)c1ccc(CN2CCN(C(=O)c3ccc(F)cc3Cl)CC2)s1` [Example 64]: 1.25 nM; for `C[C@@H](O)C(=O)N1CCN(Cc2ccc(C(=O)N(Cc3ccccc3)OC(F)(F)F)s2)CC1` [Example 1]: 0.122 nM. For `NC1(C(=O)N2CCN(Cc3ccc(C(=O)NCc4ccc(Cl)cc4Cl)s3)CC2)CCOCC1` [Example 133], the IC50 worked out at 2.14 nM. The same measure for `O=C(NCc1ccccc1OC(F)(F)F)c1ccc(CN2CCN(CCO)CC2)s1` [Example 125]: 1.68 nM; for `COc1cc(CNC(=O)c2ccc(CN3CCN(C(=O)c4c(C)cc(=O)oc4C)CC3)s2)ccn1` [Example 34]: 0.906 nM. In the case of `O=C(NCc1ccc(Cl)cc1Cl)c1cnc(CN2CCN(C(=O)c3ccccn3)CC2)s1` [Example 186] it was 33.7 nM; in that of `O=C(NCc1ccc(Cl)cc1Cl)c1ccc(CN2CCN(C(=O)C3(c4ccccc4)CC3)CC2)s1` [Example 58], 1.17 nM; in that of `O=C(NCc1ccc(Cl)cc1Cl)c1cnc(CN2CCN(C(=O)c3nc(F)ccc3F)CC2)s1` [Example 180], 8.46 nM. In the case of `O=C(NCc1ccc(Cl)cc1Cl)c1ccc(CN2CCN(C(=O)c3ccccc3F)CC2)s1` [Example 131] it was 2.13 nM; in that of `COCC1(C(=O)N2CCN(Cc3ncc(C(=O)NCc4ccc(Cl)cc4Cl)s3)CC2)CC1` [Example 205], 5.7 nM.

`Cc1cc(=O)oc(C)c1C(=O)N1CCN(Cc2ccc(C(=O)NCC3CCc4ccccc43)s2)CC1` (centres unmarked) [Example 23]: the IC50 came out at 2.75 nM. With `NC1(C(=O)N2CCN(Cc3ccc(C(=O)NCc4ccccc4OC(F)(F)F)s3)CC2)CCC1` [Example 143], the IC50 is 1.85 nM. Consider `NC1(C(=O)N2CCN(Cc3ccc(C(=O)NCc4ccccc4OC(F)(F)F)s3)CC2)CCCCC1` [Example 157], for which the concentration for half-maximal inhibition (IC50) turned out to be 2.08 nM.

With `O=C(NCc1ccc(Cl)cc1Cl)c1ccc(CN2CCN(C(=O)c3cnn4ccccc34)CC2)s1` [Example 8], the IC50 was 0.512 nM. In the case of `NC(CF)C(=O)N1CCN(Cc2ccc(C(=O)NCc3ccccc3OC(F)(F)F)s2)CC1` (centres unmarked) [Example 144] it was 1.79 nM. In the case of `COc1cc(CNC(=O)c2ccc(CN3CCN(C(=O)[C@H](O)C(C)C)CC3)s2)ccn1` [Example 30, 5-[4-((R)-2-Hydroxy-3-methyl-butyryl)-piperazin-1-ylmethyl]-thiophene-2-carboxylic acid (2-methoxy-pyridin-4-ylmethyl)-amide] it was 0.803 nM; in that of `CNC(=O)c1cccnc1N1CCN(Cc2ccc(C(=O)NCc3ccc(OC)cc3OC(F)(F)F)s2)CC1` [Example 74], 2.66 nM; in that of `NC1(C(=O)N2CCN(Cc3ncc(C(=O)NCc4ccc(Cl)cc4Cl)s3)CC2)CC1` [Example 200], 2.57 nM. In the case of `Cn1nc(C(C)(C)C)cc1C(=O)N1CCN(Cc2ccc(C(=O)NCc3ccccc3C(F)(F)F)s2)CC1` [Example 25] it was 2.76 nM.

As for `O=C(NCc1ccc(Cl)cc1Cl)c1cnc(CN2CCN(C(=O)C3CCCO3)CC2)s1` (centres unmarked) [Example 182], the IC50 was found to be 18.4 nM.

For the molecule `Cc1ccc(C(=O)N2CCN(Cc3ccc(C(=O)NCc4ccccc4C(F)(F)F)s3)CC2)s1` [Example 152], the IC50 stood at 2.07 nM.

As to `CC(O)C(=O)N1CCN(Cc2ccc(C(=O)NCc3ccc(Cl)cc3Cl)s2)CC1` (centres unmarked) [Example 20], the IC50 stood at 0.539 nM. The same measure for `O=C(NCc1ccccc1OC(F)(F)F)c1ccc(CN2CCN(C(=O)C3CC3)CC2)s1` [Example 141]: 1.86 nM. The same measure for `CC[C@@H](O)C(=O)N1CCN(Cc2ccc(C(=O)NCc3ccccc3OC(F)(F)F)s2)CC1` [Example 96]: 1.57 nM; for `COc1ccc(CNC(=O)c2ccc(CN3CCN(c4cc(C)ccn4)CC3)s2)c(OC(F)(F)F)c1` [Example 127]: 1.73 nM. Turning to `Cc1cccnc1C(=O)N1CCN(Cc2ncc(C(=O)NCc3ccc(Cl)cc3Cl)s2)CC1` [Example 194], the IC50 came out at 32 nM.
